From publication PMC12652730, “The Chemoreceptive Molecular Mechanism Underlying CSP-Mediated Recognition of Seed Elaiosome from Stemona tuberosa by Hornets” (Genes, 2025)

Assays:
VvelCSP1 = VvelCSP1 (Vespa velutina auraria, UniProt A0A384ZVP9); test: Fluorescence competitive binding assay (1-NPN probe) with VvelCSP1
Protocol: (§1) Fluorescence competitive binding assays were employed to characterize the interactions between VvelCSPs and 13 volatiles shared between the elaiosomes of S. tuberosa and the cuticular hydrocarbons of honeybees. These tests were performed in 1 cm path length quartz cuvettes with an excitation wavelength of 337 nm and emission wavelength scanning from 400–450 nm. The volatiles and the fluorescent probe 1-NPN (1-N-phenylnaphthylamine), listed in Supplementary Table S2, were dissolved in methanol to prepare 100 mM stock solutions, which were then diluted to 1 mM working solutions [25]. To remove any potential endogenous ligands, the purified proteins were delipidated by three washes with an equal volume of dichloromethane (1:1 v/v). Each wash involved a 10-min incubation, and the process was followed by evaporation of the residual solvent under a gentle stream of nitrogen. Purified CSPs were resuspended in 20 mM Tris-HCl buffer (pH 7.5) to a final concentration of 2 μM. Binding parameters for CSP-NPN were determined by titration: 2 mL of CSP solution (2 μM) was titrated with 1-NPN (final concentrations: 2−24 μM). Maximum fluorescence intensity was recorded, and the dissociation constant was calculated. […] After incubation in the dark for 2 min, fluorescence quenching was measured. Half-maximal inhibitory concentration (IC50) values for volatiles were calculated from the competition curves, and their binding constants (Ki) were subsequently derived. The presented data, including IC50 and Ki values, originate from a single experiment under uniform conditions to ensure comparability (Supplementary Table S3).

VvelCSP4 = test: Fluorescence competitive binding assay (1-NPN probe) with VvelCSP4; parameters: species or system Vespa velutina auraria; conditions: for IC50: VvelCSP4 2 μM, 1-NPN 1 μM, Tris-HCl pH 7.5, single experiment, read-out: IC50 (ligand concentration displacing 50% of the fluorescence intensity of the CSPs/NPN complex); for Ki: VvelCSP4, derived from IC50, read-out: Ki (dissociation constant)
Protocol: as §1

CsasCSP16 = target: CsasCSP16; parameters: method as in PMID 34082360; conditions: CsasCSP16 from Carposina sasakii ref 42; cited from earlier work

VvelCSP1, sequence (A0A384ZVP9 entry or part of it): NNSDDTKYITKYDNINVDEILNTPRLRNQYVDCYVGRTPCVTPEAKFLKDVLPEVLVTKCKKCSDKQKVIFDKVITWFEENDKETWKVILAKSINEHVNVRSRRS

Row | SMILES | Raw fluorescence intensity (VvelCSP1; VvelCSP1, chemical 0.5 μM) | Raw fluorescence intensity (VvelCSP1; VvelCSP1, chemical 1 μM) | Raw fluorescence intensity (VvelCSP1; VvelCSP1, chemical 2 μM) | Raw fluorescence intensity (VvelCSP1; VvelCSP1, chemical 4 μM) | Raw fluorescence intensity (VvelCSP1; VvelCSP1, chemical 6 μM) | Raw fluorescence intensity (VvelCSP1; VvelCSP1, chemical 8 μM) | Raw fluorescence intensity (VvelCSP1; VvelCSP1, chemical 12 μM) | Raw fluorescence intensity (VvelCSP1; VvelCSP1, chemical 16 μM) | IC50 (VvelCSP4) | Raw fluorescence intensity (VvelCSP4; VvelCSP4, chemical 0.5 μM) | Raw fluorescence intensity (VvelCSP4; VvelCSP4, chemical 1 μM) | Raw fluorescence intensity (VvelCSP4; VvelCSP4, chemical 2 μM) | Raw fluorescence intensity (VvelCSP4; VvelCSP4, chemical 4 μM) | Raw fluorescence intensity (VvelCSP4; VvelCSP4, chemical 6 μM) | Raw fluorescence intensity (VvelCSP4; VvelCSP4, chemical 8 μM) | Raw fluorescence intensity (VvelCSP4; VvelCSP4, chemical 12 μM) | Raw fluorescence intensity (VvelCSP4; VvelCSP4, chemical 16 μM) | Ki (VvelCSP4) | Ki (CsasCSP16)
1 | CCCCCCCCCCCCCCCCCCCCCCC [Tricosane] | 193.01 | 170.16 | 140.89 | 116.63 | 101.34 | 94.22 | 88.89 | 86.00 | 5.09 µM | 207.46 | 177.45 | 153.67 | 134.98 | 119.90 | 111.62 | 110.10 | 107.68 | 3.85 µM | 
2 | CCCCCCCC/C=C\CCCCCCCCCCCCC [Z-9-Tricosene] | 214.80 | 200.54 | 176.56 | 164.98 | 151.46 | 137.73 | 126.20 | 120.19 | 3.97 µM | 182.16 | 152.13 | 132.92 | 109.71 | 96.72 | 89.44 | 84.83 | 83.78 | 2.97 µM | 
3 | CCCCCCCCCCCCCCC [pentadecane] |  |  |  |  |  |  |  |  |  |  |  |  |  |  |  |  |  |  | 3.5 µM
